Results reported in patent publication US20080199484A1, “Use Of Cox-2 Inhibitor to Prevent T-Cell Anergy Induced By Dendritic Cell Therapy” (CEDARS-SINAI MEDICAL CENTER, priority 2003, published 2008).

Columns and labels:
[1] = tested on: PGE2 in the supernatants of glioma cell cultures; experiment: PGE2 ELISA in supernatants of glioma cell cultures; assay type: cell-based, human; conditions: for PGE2 in the culture supernatants (ELISA): FIG. 1B
Procedure: Tumor cells, including U-87MG human glioma cell line (obtained from American Type Culture Collection; Rockville, Md.), LN-18 cell line (obtained from Dr. Erwin Van Meier, Emory University; Atlanta, Ga.), and primary cultured human glioma MG-377 (obtained from surgical specimen of a glioblastoma patient at neurosurgical institute, Cedars-Sinai Medical Center; Los Angeles, Calif.), were maintained at 37° C. and 5% CO2 in Dulbecco's Modified Eagles Medium (available from Sigma; St. Louis, Mo.; hereinafter “DMEM”) supplemented with 10% heat-inactivated fetal bovine serum (available from Sigma; hereinafter “[…]”), 2 mM […], 10 mM HEPES (available from Sigma), 100 U/ml penicillin (available from Sigma), 100 μg/ml streptomycin (available from Sigma). 100% di-methyl sulfonyl oxygen (available from Sigma; hereinafter “DMSO”) dissolved NS-398 (selective COX-2 inhibitor; obtained from Cayman Chemical) was used at concentrations of 10 μM. Recombinant human TNF-α (obtained from BioSource International; Camarillo, Calif.) was used at a concentration of 20 ng/ml and TRAIL (obtained from PeproTech Inc.; Rocky Hill, N.J.) was used at a concentration of 300 ng/ml.
Glioma cells were plated to 6-well culture plate at density of 1×10^6 cells/well/2 ml with fresh X-Vivo 15 medium. Several glioma cells were pre-treated with the COX-2 inhibitor NS-398 for 8 hours. The NS-398 treated glioma cells were cultured with TNF-α, TRAIL, and NS-398. The other cells were cultured with TNF-α and TRAIL. After 24 hours culture with these agents, iDCs were put into the wells at the density of 3×10^5 cells/well, and were co-cultured with glioma cells for 16 hours. Several iDCs were cultured with TNF-α/TRAIL or TNF-α/TRAIL/NS-398 without tumor cells. Human glioma cell lines (U-87MG and LN-18) and stable transfectants (LN-18-COX-2 and LN-18-EP) were co-cultured with healthy donor iDCs, and MG-377 were co-cultured with autologous iDCs. […]
PGE2 in the culture supernatants was measured by ELISA (FIG. 1B).

CD11c+ DCs = experiment: Flow cytometric analysis of DC surface and maturation markers (CD86, HLA-DR, CD83, CCR7); assay type: cell-based, human; conditions: FIG. 3; for CD83 and CCR7 expression (maturation markers) / CD86 expression, geometric mean: single-cultured iDCs; for CD83 and CCR7 expression (maturation markers): 16 hours co-stimulation, TNF-α 20 ng/ml; for CD86 expression, geometric mean: 16 hours, TRAIL 300 ng/ml and/or PGE2 0.1 μM, untreated iDCs: 647
Procedure: Human PBMCs were separated from peripheral blood of a healthy donor and the aforementioned glioblastoma patient using Ficoll-Hypaque density centrifugation. PBMC were resuspended in X-Vivo 15 serum-free medium (obtained from Cambrex; Santa Rosa, Calif.) and allowed to adhere to 24-well culture plate at 37° C. The non-adherent cells were removed after 2 hours. CD4+ and CD8+ cells were isolated from these non-adherent cells with MiniMACS cell separation unit (obtained from Milenyi Biotec, Auburn, Calif.) and microbeads conjugated mouse monoclonal anti-human CD4 and CD8 antibody (obtained from Milenyi Biotec). CD4+ and CD8+ cells were used for mixed lymphocyte reaction (MLR) described later. The adherent cells were subsequently cultured in X-Vivo 15 serum-free medium. 20 ng/ml GM-CSF (obtained from BioSource International) and 10 ng/ml IL-4 (obtained from BioSource International) were added to the cultures on days 0, 2, and 4. After 7-day culture, the floating cells were transferred to fresh plates with fresh X-Vivo 15 medium as immature DCs (iDCs). Several iDCs were cultured with 300 ng/ml TRAIL and/or 0.1 μM PGE2 (obtained from Sigma) and/or 20 ng/ml TNF-α for 16 hours (TRAIL-DCs, PGE2-DCs, TRAIL/PGE2-DCs, TRAIL/TNF-α-DCs, TRAIL/TNF-α/PGE2-DCs).
(§1) Glioma cells were plated to 6-well culture plate at density of 1×10^6 cells/well/2 ml with fresh X-Vivo 15 medium. Several glioma cells were pre-treated with the COX-2 inhibitor NS-398 for 8 hours. The NS-398 treated glioma cells were cultured with TNF-α, TRAIL, and NS-398. The other cells were cultured with TNF-α and TRAIL. After 24 hours culture with these agents, iDCs were put into the wells at the density of 3×10^5 cells/well, and were co-cultured with glioma cells for 16 hours. Several iDCs were cultured with TNF-α/TRAIL or TNF-α/TRAIL/NS-398 without tumor cells. Human glioma cell lines (U-87MG and LN-18) and stable transfectants (LN-18-COX-2 and LN-18-EP) were co-cultured with healthy donor iDCs, and MG-377 were co-cultured with autologous iDCs.
Monoclonal mouse anti-human antibodies of PE-conjugated CD83, CD86, HLA-DR (obtained from Phamingen), FITC-conjugated CD11c (obtained from BioSource International), and unconjugated CCR7 (R&D Systems; Minneapolis, Minn.) were used for cell surface analysis of DCs. PE-conjugated F(ab′)2 goat anti-mouse immunoglobulins (obtained from DAKO Cytomation; Carpinteria, Calif.) was used for secondary antibody. Mouse IgG1 and IgG2a (obtained from Phamingen) were used for isotype control. DCs were stained with anti-CD86, HLA-DR, CD83, and CCR7 antibodies before staining with anti-CD11c antibody, and CD11c+DCs were isolated with MiniMACS cell separation unit and microbeads-conjugated anti-FITC antibody (obtained from Milenyi Biotec).
DCs were stained with anti-CD86, HLA-DR, CD83, CCR7, and CD11c antibody. CD11c+ DCs were isolated with cell separation unit and microbease-conjugated anti-FITC antibody.

[2] = tested on: COX-2 protein in human glioma cells (U-87MG, LN-18, MG-377); experiment: Western blot of COX-2 protein expression in human glioma cells; assay type: cell-based; conditions: glioma cells treated with TRAIL and TNF-α plus COX-2 inhibitor (NS-398 10 μM); FIG. 1A
Procedure: Samples were extracted with buffer containing 1% Triton X-100, 150 mM NaCl, 50 mM Tris (hydroxymethyl aminomethane) (pH 7.5) and 1 mM phenylmethylsulfonyl fluoride (PMSF). The cell debris was removed by centrifugation at 14,000 g for 20 minutes and the supernatant was subjected to SDS polyacrylamide gel electrophoresis (SDS-PAGE) and loaded on a 7.5% polyacrylamide gel (obtained from Bio-Rad; Hercules, Calif.). Electrophoretic transfer to nitrocellulose membranes (obtained from Amersham Biosciences; Piscataway, N.J.) was followed by immunoblotting with a mouse IgG1 anti-COX-2 antibody (obtained from Phamingen) or a mouse IgG1 anti-beta-tublin (obtained from Sigma). This was followed by hybridization with a peroxidase-linked anti-mouse IgG antibody (obtained from Amersham Bioscience). The signal was detected by chemiluminescence using ECL detection system (obtained from Amersham Bioscience) and Hyperfilm ECL (obtained from Amersham Bioscience).
Expression of COX-2 protein in human glioma cells was examined by Western blot (FIG. 1A).

[3] = tested on: glioma cells (U-87MG, LN-18, MG-377); iDCs; assay type: cell-based; conditions: NS-398 treatment; data not shown
isolated CD11c+ DCs = experiment: IL-10 and IL-12p70 ELISA in supernatants of DC cultures; assay type: cell-based, human; conditions: FIG. 4
Procedure: as §1
PGE2 ELISA kit (obtained from Cyman Chemical; Ann Arbor, Mich.) was used according to the manufacture's protocol for measurement in the supernatants of glioma cell cultures. IL-10 and IL-12 p70 ELISA kits (obtained from Phamingen) were used according to the manufacture's protocols for measurement in the supernatants of cultures of tumor cells or isolated CD11c+ DCs. CD40-CD40L interaction is a main trigger of IL-12 production by DCs (Cella, M. et al., “Ligation of CD40 on dendritic cells triggers production of high levels of interleukin-12 and enhances T cell stimulatory capacity: T-T help via APC activation,” J. Exp. Med., Vol. 184, pp. 747-752 (1996)). Based on this evidence, cells were co-cultured with NIH-CD40L cells (obtained from Dr. Gang Zeng, National Cancer Institute, N11, MD; the ratio of NIH-CD40L:DCs=1:1) for 16 hours, and the supernatants of co-cultures were used as the samples. The lower detection limit of each kit was 7.8 pg/ml. All samples and standards were run in duplicate.
IL-10 and IL-12p70 in the supernatants of cultures were measured by ELISA, and the results were statistically compared with NS-398(−) single-cultured DCs (FIG. 4).

CD4+ T cells = experiment: Mixed lymphocyte reaction and IFN-γ/IL-10 ELISPOT (Th cell polarization); assay type: cell-based, human
[4] = tested on: COX-2 overexpressing glioma cells; conditions: supplementing with recombinant IL-12, in the absence of COX-2 inhibitor; cited from earlier work
[5] = DCs co-cultured with NS-398 treated glioma
[6] = single-cultured DCs, compared with NS-398(−) single-cultured DCs

CS(=O)(=O)Nc1ccc([N+](=O)[O-])cc1OC1CCCCC1 [NS-398]
PGE2 in the culture supernatants (ELISA) ([1]; LN-18, each group): no significant difference | PGE2 produced by the COX-2 transfectant ([1]; LN-18-COX-2 stable transfectant): suppressed the PGE2 | PGE2 in the culture supernatants (ELISA) ([1]; U-87MG and MG-377, addition of NS-398 10 μM to TRAIL/TNF-α cultures, p<0.01): significantly reduced | geometric means of the expressing markers (CD86, HLA-DR, CD83, CCR7) (CD11c+ DCs; DCs co-cultured with glioma cells, with or without NS-398 treatment): no statistical difference | COX-2 expression (Western blot) [2]: did not extinguish the COX-2 expression | death ratio in each glioma [3]: did not cause a change of the death ratio | IL-10 (ELISA) (isolated CD11c+ DCs; [5]): downregulation of IL-10 | IL-12 (ELISA) (isolated CD11c+ DCs; [5]): augmentation of IL-12 | IL-10 production (ELISA) (isolated CD11c+ DCs; [6]): did not effect to change | IL-12p70 production (ELISA) (isolated CD11c+ DCs; [6]): did not effect to change | DC-mediated Th cell polarization (CD4+ T cells; DCs co-cultured with COX-2-inhibited glioma cells, FIG. 5A-F): bias toward Th1 | Th cell polarization by tumor-infiltrating DCs (CD4+ T cells; LN-18-COX-2 stable transfectant with COX-2 inhibitor): polarizing the Th cells toward Th1 | IL-10 expression (ELISPOT) (CD4+ T cells; co-culture of primary glioma (MG-377) with autologous DCs, FIG. 5E): decrease in IL-10 | interferon-gamma expression (ELISPOT) (CD4+ T cells; co-culture of primary glioma (MG-377) with autologous DCs, FIG. 5F): decrease in interferon-gamma | IL-10 expression (ELISPOT) (CD4+ T cells; co-cultured DCs and glioma, FIG. 5A, 5B): decrease in IL-10 expression | interferon-gamma expression (ELISPOT) (CD4+ T cells; co-cultured DCs and glioma, FIG. 5C, 5D): increase in interferon-gamma expression

CCCCC[C@H](O)/C=C/[C@H]1[C@H](O)CC(=O)[C@@H]1C/C=C\CCCC(=O)O [PGE2, ProstaglandinE2]
CD83 and CCR7 expression (maturation markers) (CD11c+ DCs): did not induce CD83 or CCR7 expression | CD86 expression, geometric mean (CD11c+ DCs): 2779 | Th cell polarization by tumor-infiltrating DCs (CD4+ T cells; soluble PGE2 added into culture supernatant of LN-18-EP): same effect on Th2 polarization as LN-18-COX-2

TNF-α
CD83 and CCR7 expression (maturation markers) (CD11c+ DCs): induced both CD83 and CCR7 expressions

B1: TRAIL: TNF-related apoptosis inducing ligand, obtained from PeproTech, used at 300 ng/ml (protein, UniProt P50591 1-281, looked up)
Tumor necrosis factor ligand …: MAMMEVQGGPSLGQTCVLIVIFTVLLQSLCVAVTYVYFTNELKQMQDKYSKSGIACFLKEDDSYWDPNDEESMNSPCWQVKWQLRQLVRKMILRTSEETISTVQEKQQNISPLVRERGPQRVAAHITGTRGRSNTLSSPNSKNEKALGRKINSWESSRSGHSFLSNLHLRNGELVIHEKGFYYIYSQTYFRFQEEIKENTKNDKQMVQYIYKYTSYPDPILLMKSARNSCWSKDAEYGLYSIYQGGIFELKENDRIFVSVTNEHLIDMDHEASFFGAFLVG
CD83 and CCR7 expression (maturation markers) (CD11c+ DCs): did not induce CD83 or CCR7 expression | CD86 expression, geometric mean (CD11c+ DCs): 1086

B2: recombinant IL-12: recombinant IL-12 supplementing DC-based glioma immunotherapy (Akasaki et al.) (protein, UniProt P43431 23-215; P43432 23-335, looked up)
Interleukin-12 subunit alpha: RVIPVSGPARCLSQSRNLLKTTDDMVKTAREKLKHYSCTAEDIDHEDITRDQTSTLKTCLPLELHKNESCLATRETSSTTRGSCLPPQKTSLMMTLCLGSIYEDLKMYQTEFQAINAALQNHNHQQIILDKGMLVAIDELMQSLNHNGETLRQKPPVGEADPYRVKMKLCILLHAFSTRVVTINRVMGYLSSA
Interleukin-12 subunit beta: MWELEKDVYVVEVDWTPDAPGETVNLTCDTPEEDDITWTSDQRHGVIGSGKTLTITVKEFLDAGQYTCHKGGETLSHSHLLLHKKENGIWSTEILKNFKNKTFLKCEAPNYSGRFTCSWLVQRNMDLKFNIKSSSSSPDSRAVTCGMASLSAEKVTLDQRDYEKYSVSCQEDVTCPTAEETLPIELALEARQQNKYENYSTSFFIRDIIKPDPPKNLQMKPLKNSQVEVSWEYPDSWSTPHSYFSLKFFVRIQRKKEKMKETEEGCNQKGAFLVEKTSTEVQCKGGNVCVQAQDRYYNSSCSKWACVPCRVRS
therapeutic effect of DC-based glioma immunotherapy [4]: potent therapeutic effect
